Data from patent US11896678B2, “Compositions and methods for treatment of peroxisome proliferator-activated receptor gamma (PPARG) activated cancer” (THE BROAD INSTITUTE, INC., priority 2017, dated 2024).

Legend:
[1] = biological target: T1, PPARG ligand-binding domain - SMRT/NCOR2 corepressor peptide (Homo sapiens, UniProt P37231); experiment: TR-FRET corepressor assay, SMRT/NCOR2 peptide; format: biochemical
T1 construct: purchased ThermoFisher Scientific
T1 sequence (P37231 238-503 limits assumed): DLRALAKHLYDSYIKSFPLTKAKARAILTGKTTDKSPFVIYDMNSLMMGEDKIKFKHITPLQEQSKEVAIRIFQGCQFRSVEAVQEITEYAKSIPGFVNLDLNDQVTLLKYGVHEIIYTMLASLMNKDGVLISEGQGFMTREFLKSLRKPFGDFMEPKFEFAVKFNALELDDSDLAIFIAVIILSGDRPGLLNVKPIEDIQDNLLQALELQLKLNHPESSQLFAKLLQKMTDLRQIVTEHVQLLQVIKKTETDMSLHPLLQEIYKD
Method: To evaluate inverse-agonism, a TR-FRET PPARG co-repressor assay (ThermoFisher) that measures recruitment of a fluorescent NCOR1 or NCOR2 corepressor peptide to the PPARG ligand-binding domain was used (ThermoFisher).
To determine effects on interactions between PPARG and coregulators, PPARG modulators were tested in two TR-FRET biochemical interaction assays for agonism and inverse-agonism. Agonism was quantitated using a coactivator assay, which measured the interaction between the PPARG ligand-binding domain and a fluorescently-labeled peptide from TRAP220/MED1. […] To evaluate inverse-agonism biochemically, ligand-dependent interactions were measured between PPARG ligand-binding domain and corepressor peptides from NCoR/NCOR1 and SMRT/NCOR2.

[2] = biological target: T2, PPARG (Homo sapiens, UniProt P37231); experiment: RT112/84 FABP4-NLucP reporter gene assay, unstimulated; format: cell-based
T2 construct: endogenous in cells; host or cells: RT112/84 bladder cancer cells (FABP4-NLucP knock-in clone)
T2 sequence (P37231 1-477 isoform P37231-2): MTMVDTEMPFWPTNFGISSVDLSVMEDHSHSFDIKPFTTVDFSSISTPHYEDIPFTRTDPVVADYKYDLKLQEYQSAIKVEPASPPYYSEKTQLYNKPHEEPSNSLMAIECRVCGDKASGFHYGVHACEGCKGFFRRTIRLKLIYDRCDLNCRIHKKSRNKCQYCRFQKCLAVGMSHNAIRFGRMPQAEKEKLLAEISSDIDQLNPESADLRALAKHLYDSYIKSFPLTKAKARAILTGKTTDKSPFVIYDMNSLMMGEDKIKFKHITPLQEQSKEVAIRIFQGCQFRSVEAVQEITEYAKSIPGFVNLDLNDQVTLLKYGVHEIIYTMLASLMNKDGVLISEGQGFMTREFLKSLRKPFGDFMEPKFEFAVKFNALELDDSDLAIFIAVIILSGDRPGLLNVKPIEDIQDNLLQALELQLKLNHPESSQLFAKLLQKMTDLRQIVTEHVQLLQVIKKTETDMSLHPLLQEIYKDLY
Source text: Next, a PPARG reporter cell line was engineered to enable higher throughput assays to evaluate PPARG transactivation. Briefly, a destabilized NanoLuc luciferase reporter gene was inserted into the 3′-UTR of the FABP4 gene in the RT112/84 bladder cancer cell line using CRISPR/Cas9 mediated homology-directed repair (FIG. 4A).
RT112-FABP4-NLucP Reporter Gene Assay: Reporter cell line was generated by engineering NanoLuc gene into the 3′ UTR of FABP4 in RT112/84 cells using CRISPR/Cas9 guided genome engineering. Single cell clones were generated and the clone with the widest dynamic range selected for use. Assays were performed by seeding 384-well plates with ˜10,000 cells per well in MEMalpha containing 10% FBS and dosing compounds at indicated concentration using HP D300 digital dispenser (HP/Tecan). 18-24 hours after dosing with compound, cells were assayed using NanoGlo Luciferase Assay Reagent (Promega Madison, WI) and plates were read using EnVision Multilabel Reader (PerkinElmer Waltham, MA).

[3] = test system: FABP4 expression; experiment: Immunoblot of FABP4 in bladder cancer cell lines; format: cell-based, human; settings: panel of bladder cancer cell lines
Method: Western Blot Analysis: Western blots were performed using standard protocols with semi-dry transfer Trans-Blot® SD (Bio-Rad Hercules, CA), Li-Cor Odyssey Blocking buffer, and imaging with LiCor Odyssey Imaging System (LI-COR Lincoln, NE). Briefly, cells were grown in 6-well plates and harvested using Complete Lysis-M with protease and phosphatase inhibitors (Roche Applied Science). Western blot analyses were performed using standard protocols with semi-dry transfer Trans-Blot SD (Bio-Rad), LI-COR Odyssey Blocking buffer, and imaging with LI-COR Odyssey Imaging System (LI-COR). The anti-PPARG C26H12, anti-PPARG 81B8, anti-FABP4 D25B3, and anti-CEACAM5 CB30 antibodies were obtained from Cell Signaling Technology. The anti-ACSL5 ab57210 and anti-HMCGS2 EPR8642 antibodies were obtained from Abcam. The anti-VCL (vinculin) V9264 antibody was obtained from Sigma-Aldrich. All primary antibodies were tested at 1:1,000 dilutions, with the exception of anti-VCL, which was tested at a 1:5,000 dilution. Secondary goat anti-mouse 926-68020, and goat-anti-rabbit 926-32211 antibodies were obtained from LI-COR Biosciences and used at 1:15,000 dilutions.

[4] = test system: PPARG target gene expression in UM-UC-9 cells; experiment: RNA sequencing of UM-UC-9 cells after 7 days dosing; format: cell-based, human; settings: 500 nmol/L
Method: Next, the effects of long-term dosing on the transcriptional profile of the PPARG-amplified cell line, UMUC-9, were evaluated. Briefly, UM-UC-9 cells were treated for 7 days with various PPARG modulators dosed at 500 nmol/L and gene expression was analyzed using RNA sequencing. […] Genes that were more abundantly expressed upon treatment with inverse-agonists included ALPP, SPINK4, and ALDH1A3 (FIG. 5). […] In summary, the in vitro pharmacological properties of known PPARG modulators have been characterized and two distinct chemotypes with bona-fide inverse-agonist activity in PPARG-activated bladder cancer cells were identified.
RNAseq analysis: RNA was isolated using RNEasy (Qiagen) and an RNAseq library was prepared using NEBNext Ultra Directional RNA Library Prep Kit for Illumina and NEBNext Multiplex Oligos for Illumina (New England BioLabs). RNAseq sequencing was performed using an Illumina MiSeq instrument according to the manufacturers protocol. Sequence data was analyzed using Firehose (Broad Institute, Cambridge MA) to map transcripts and calculate RPKM (SW780 cDNA expression) or TPM (UM-UC-9).
For UM-UC-9 RNAseq experiment, the resulting reads were used to calculate transcript abundance in units of TPM (transcripts per million) (18), which were then adjusted using TMM normalization (19) for comparison. […]

increase in signal [1]: 1.7 fold
effect on unstimulated reporter [2]: minimal detectable effect
Structure (SMILES): O=C(Nc1ccccc1)c1cc([N+](=O)[O-])ccc1Cl [GW9662]
expression of FABP4 [3]: not
hierarchical clustering of gene expression signatures [4]: cluster with vehicle-treated controls
